These results are taken from ChEMBL document CHEMBL1129295, “Studies of cardiotonic agents. 8. Synthesis and biological activities of optically active 6-(4-(benzylamino)-7-quinazolinyl)-4,5-dihydro-5-methyl-3(2H)- pyridazinone (KF15232)” (J Med Chem, 1996).

Structures are written as SMILES.

Test [1] can be described thus: Inhibition of bovine arterial Phosphodiesterase 4. On the set-up: species or system Bos taurus.
In another test the target is Phosphodiesterase 3B (Bos taurus, UniProt E1BN64). The test can be described thus: Inhibition of bovine arterial Phosphodiesterase 3.
Phosphodiesterase 3B, sequence (E1BN64 whole entry): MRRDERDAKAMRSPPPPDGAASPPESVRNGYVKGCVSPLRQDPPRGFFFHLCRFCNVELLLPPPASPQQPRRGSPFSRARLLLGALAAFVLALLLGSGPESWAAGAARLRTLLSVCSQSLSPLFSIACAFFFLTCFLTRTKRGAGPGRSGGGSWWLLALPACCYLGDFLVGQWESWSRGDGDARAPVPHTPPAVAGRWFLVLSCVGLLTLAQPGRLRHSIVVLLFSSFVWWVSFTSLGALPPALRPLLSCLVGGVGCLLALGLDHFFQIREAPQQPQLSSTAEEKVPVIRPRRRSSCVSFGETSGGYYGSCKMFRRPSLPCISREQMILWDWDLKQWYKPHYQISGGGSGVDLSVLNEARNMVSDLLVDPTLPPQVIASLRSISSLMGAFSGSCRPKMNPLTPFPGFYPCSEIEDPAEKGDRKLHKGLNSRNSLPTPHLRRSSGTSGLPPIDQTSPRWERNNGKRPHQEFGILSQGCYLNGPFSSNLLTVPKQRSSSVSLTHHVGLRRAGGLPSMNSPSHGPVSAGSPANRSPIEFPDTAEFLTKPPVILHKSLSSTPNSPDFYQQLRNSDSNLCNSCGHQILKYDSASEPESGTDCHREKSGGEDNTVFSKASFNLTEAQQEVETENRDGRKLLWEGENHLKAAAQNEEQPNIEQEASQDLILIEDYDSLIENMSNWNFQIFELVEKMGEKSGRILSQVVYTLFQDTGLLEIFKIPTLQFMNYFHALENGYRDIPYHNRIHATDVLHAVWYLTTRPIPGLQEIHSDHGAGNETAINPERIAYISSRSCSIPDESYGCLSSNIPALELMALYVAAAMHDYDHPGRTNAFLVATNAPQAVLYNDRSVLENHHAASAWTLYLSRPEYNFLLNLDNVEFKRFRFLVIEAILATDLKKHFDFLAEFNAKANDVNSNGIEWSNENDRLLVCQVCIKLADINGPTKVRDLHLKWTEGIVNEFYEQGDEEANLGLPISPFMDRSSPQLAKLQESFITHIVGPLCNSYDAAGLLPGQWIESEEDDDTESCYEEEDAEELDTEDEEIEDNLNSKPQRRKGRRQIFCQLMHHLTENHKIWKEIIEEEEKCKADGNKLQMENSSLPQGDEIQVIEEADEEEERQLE

Regarding `C[C@H]1CC(=O)NN=C1c1ccc2c(NCc3ccccc3)ncnc2c1`, the IC50 – broadly, the concentration needed to halve the response being measured – in test [1] is over 10000 nM.

In test [1], `C[C@@H]1CC(=O)NN=C1c1ccc2c(NCc3ccccc3)ncnc2c1` displayed a concentration for half-maximal inhibition (IC50) of over 10000 nM.

Turning to `Nc1nc2c(ncn2[C@@H]2O[C@@H]3COP(=O)(O)O[C@H]3[C@H]2O)c(=O)[nH]1`, the 50% inhibitory concentration (IC50) on Phosphodiesterase 3B is 100 nM.

Regarding `CC1CC(=O)NN=C1c1ccc2c(NCc3ccccc3)ncnc2c1` (racemic), the IC50 in test [1] was over 10000 nM.

As for `Cc1[nH]c(=O)c(C#N)cc1-c1ccncc1` [MILRINONE], the results for the IC50 (on Phosphodiesterase 3B; in test [1]) were 1000 nM and 10000 nM, respectively.

The molecule `COc1ccc(C2CNC(=O)C2)cc1OC1CCCC1` (configuration not stated) [ROLIPRAM] registered an IC50 in test [1] of 100 nM.
